Values joined by “and” are separate entries in the source; they are usually repeats but may differ in a detail not shown here. Equal values may be shown once. “Also recorded” adds a separate entry of the source. Read-outs that look alike come from different tables or passages of the source.

Assay [1] concerns the target T1, IL17A (Homo sapiens, UniProt Q16552, C129S).
T1 construct: For crystallography, NMR and early SPR studies, IL17A (34–155)C129S; Trx-6His (N, cleaved yes); made in house; host or cells: Escherichia coli Shuffle T7 express (NEB)
As to the kind of experiment: 2D NMR titration of compound binding to IL17A. Here is the method:
NMR spectra were acquired on either a Bruker 500 MHz AVANCE III spectrometer or a Bruker 600 MHz AVANCE III HD spectrometer, both with cryoprobes, on 60 µM protein samples in 20 mM deuterated TRIS buffer, pH 8.0, with 150 mM NaCl. For fragment screening, fragments were added from a concentrated DMSO stock to a concentration of 1 mM in the NMR tube. As described above, fragments were initially added as mixtures of 12 and those mixtures which induced significant changes in a 13C-HSQC spectrum of the protein were then deconvoluted to find the individual binders.

The target of assay [2] is T2, IL17A (Homo sapiens, UniProt Q16552).
T2 construct: Biotinylated Avi-tag IL17A-(24–155) was produced by enzymatic biotinylation; 6His-MBP (N, cleaved yes); made in house; host or cells: Escherichia coli Shuffle T7 express (NEB)
As to the kind of experiment: Compound binding to IL17A via surface plasmon resonance (SPR). The following applies: for Kd: binding to IL17A. Here is the method: Compounds were assayed via Surface Plasmon Resonance (SPR) using Biacore T200 instrument and Biacore 4000 [Formerly GE Healthcare (now Cytiva Life Sciences)]. […] Sensorgrams were processed (including solvent correction) and analyzed using Biacore T200 and Biacore 4000 evaluation software. The binding curves were fit to determine the equilibrium dissociation constant (KD) and kinetic constants (kon and koff).
Supplemental Figure 2: Measurement for binding of IL17A inhibitors by Surface Plasmon Resonance (SPR).
Background: SPR reads the build-up and loss of mass on a sensor chip optically.

In assay [3] the test system is T3, IL17A-IL17RA interactions.
T3 construct: IL17A WT (34–155)C129S and Truncated (34–148)C129S was injected; Trx-6His (N, cleaved yes); made in house; host or cells: Escherichia coli Shuffle T7 express (NEB) for IL17A
As to the kind of experiment: SPR competition assay: IL17A +/- inhibitor over immobilized IL17RA. Format: binding. As to conditions: IL17A +/- inhibitor injected over immobilized IL17RA. Here is the method:
(§1) To interrogate IL17A—IL17RA binding and the effect of compound binding to IL17A for interaction with IL17RA, Biotinylated Avi tag IL17RA was immobilized using CAP chip. IL17A WT protein with and without compounds was injected over the immobilized IL17RA surface. The surface was regenerated using mixture of 8 M Guanidine Hydrochloride and 1 M Sodium Hydroxide. To profile both IL17A WT and truncated-IL17A binding to IL17RA, Fc tag IL17RA (Sino Biological) was captured on immobilized anti-Fc (Human Fc from Pierce) surface. IL17A WT (34–155)C129S and Truncated (34–148)C129S was injected at flow rate of 80 µL/min for contact time of 180 s and dissociation was monitored for 1200 s. The surface was regenerated with 2 consecutive injections (60 s and 10 s at 60 µL/min) of 10 mM Glycine, pH 1.5.
Supplemental Figure 6: C-terminal binding site compounds can disrupt IL17A binding to its receptor in SPR competition assay. Biotinylated Avi-tagged IL17RA was captured on CAP chip; IL17A +/- inhibitor samples were injected over immobilized IL17RA . Cmpd 1 was used as the positive control. [picture]

Assay [4] relates to TNF-only stimulated HeLa reporter cells. As to the kind of experiment: TNF-only stimulated HeLa-LCN2 luciferase reporter cells. The following applies: Homo sapiens, read-out: TNF-only stimulated cell IC50. Format: cell-based. Here is the method: (§2) The promoter of the IL17 target gene lipocalin 2 (LCN2) inserted into pGL4-luciferase vector (pGL4[luc2P/LCN2/Hygro], obtained from Promega) was used to generate a stable clone in HeLa cells (ATCC) using hygromycin. In response to IL17 stimulation the increase in LCN2-luciferase gene transcription can be monitored using the luciferase reporter assay as described below. The reporter cells (HeLa-LCN2) were cultured in Dulbecco's modified Eagle's medium supplemented with 10% (v/v) fetal bovine serum, 0.2 mg/mL hygromycin, and 1% penicillin and streptomycin. Cells were maintained at 37 °C in a humidified atmosphere of 5% CO2. The assay media contained Dulbecco's modified Eagle's medium supplemented with 0.5% Charcoal-stripped FBS and 1% penicillin and streptomycin. About 7500 cells per well were plated in 40 ul assay media in a 384-well black plate (Grenier, #781,090) for 16 h. Then cells were stimulated with IL17A (10 ng/mL) and TNF (20 ng/mL) for 6 h at 37 °C and 5% CO2. The supernatant was removed and 25 µL of One-Glo reagent (#E6110, Promega) was added to the wells and luminescence was measured using Envision multimode plate reader. Background signal was measured using the same protocol by stimulating cells with TNF (20 ng/mL) in the absence of IL17A. All inhibition experiments were normalized against DMSO control containing no inhibitor. Example raw data are shown in Supplementary Fig. 10B.
On the technique in general: Reporter assays use an easily measured gene product as a stand-in for the process of interest.

Assay [5] concerns IL17A/TNF stimulated HeLa cells carrying an LCN2 promoter-driven luciferase reporter. As to the kind of experiment: IL17A/TNF stimulated HeLa-LCN2 luciferase reporter cells. Format: cell-based. The following applies: for IC50: Homo sapiens, HeLa LCN2 luciferase reporter, IL17A and TNF, read-out: IL17A/TNF stimulated cell IC50. Here is the method:
as §2

Assay [6] can be described thus: AlphaLISA TruHits counter screen for false positives. As to conditions: AlphaLISA non-specific effects; read-out: TruHits counterscreen IC50. Here is the method: (§3) AlphaLISA technology was used to understand the ability of compounds to inhibit IL17A binding to IL17 receptor (IL17RA). Compounds of interest were diluted in 100% DMSO and plated in a 384 well white proxiplate (Perkin Elmer) using Echo Acoustic Liquid Handler (LabCyte Sunnydale, CA). To the compound plate, 4 µL of biotinylated IL17A (R&D systems) and 2 µL of IL17RA-Fc (R&D Systems) was added, to provide a final concentration of 1 nM of IL17RA-Fc and IL17A, respectively. The assay was carried out in 100 mM Tris, 0.01% Tween-20, 0.1% BSA, pH 8.0. The assay mixture was allowed to incubate at room temperature for 60 min, after which, 2 µL of protein A AlphaLISA acceptor beads (#AL101M, PerkinElmer) was added to a final concentration of 7.5 µg/mL for 60 min. To the plate, 2 µL of streptavidin donor beads (#6,760,002, PerkinElmer) was added to a final concentration of 7.5 µg/mL. The plate was allowed to incubate for one hour at room temperature, then loaded into the Envision multimode plate reader (Perkin Elmer). AlphaLISA TruHits Kits (#AL900D, PerkinElmer) were used to assess potential false positives. All inhibition experiments were normalized against DMSO control containing no inhibitor. Example raw data are shown in Supplementary Fig. 10A.
(In general: In Alpha technology, singlet oxygen from a donor bead excites a nearby acceptor bead.)

In another assay the target is T4, IL17A-IL17RA-Fc complex (Homo sapiens, UniProt Q16552).
T4 construct: purchased R&D Systems
As to the kind of experiment: IL17A-IL17RA-Fc AlphaLISA assay. Type of assay: biochemical. Here is the method:
as §3

For assay [7], the target named is T2, IL17A. As to the kind of experiment: Fluorescence polarization competition assay with FP probe Cmpd 11. Type of assay: binding. The following applies: for Competition for IL17A with FP probe: probe Cmpd 11. Here is the method: Fluorescence polarization (FP) assays were performed in black shallow 384-well micro plates (ProxiPlate – 384 F Plus, PerkinElmer) using Envision multimode plate reader (Perkin-Elmer). Polarization was measured by using an excitation filter of 485 nm and an emission filter of 535 nm. Each well was flashed 50 times, and the average values were used. Briefly, 5 µL of IL17A (20 nM) diluted in the assay buffer (50 mM Tris pH 8.0, 0.001% Tween) was added to compound containing wells and incubated for 60 min. To this, 5 µL of the FP probe (10 nM) was added and the reaction mixture was incubated for 120 min at room temperature prior to measuring FP. All inhibition experiments were normalized against DMSO control containing no inhibitor.

A further assay addresses T5, IL17RA (Homo sapiens, UniProt Q96F46).
T5 construct: purchased Sino Biological
As to the kind of experiment: SPR of IL17A WT and truncated IL17A binding to IL17RA. The following applies: IL17A construct binding to IL17RA. Here is the method: as §1

For assay [8], the target named is T2, IL17A. As to the kind of experiment: Isothermal titration calorimetry with IL17A dimer. Format: binding. The following applies: reverse titration, 50 mM sodium phosphate pH 7.0; read-out: ITC affinity (KD). Here is the method:
Supplemental Figure 7: Isothermal titration calorimetry of Cmpd 10. Theoretical binding of 1 molecule to a IL17A dimer would result in N of 0.5. Observed stoichiometry was 0.7. 200 µM IL17A (dimer) used injected (reverse titration) to 20 µM Cmpd 10 in 50 mM sodium phosphate pH 7.0.

[9] abbreviates: disruption of IL17A-IL17RA-Fc complex formation, read-out: IL17A/IL17RA-Fc AlphaLISA IC50.

T2 sequence (Q16552 24-155): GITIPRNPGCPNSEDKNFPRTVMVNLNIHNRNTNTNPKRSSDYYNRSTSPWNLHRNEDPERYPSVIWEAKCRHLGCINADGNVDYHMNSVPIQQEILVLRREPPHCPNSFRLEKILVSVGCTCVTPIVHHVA
T4 sequence (Q16552 24-155, one chain of several): as the sequence (Q16552 24-155) above
T1 sequence (Q16552 34-155 C129S): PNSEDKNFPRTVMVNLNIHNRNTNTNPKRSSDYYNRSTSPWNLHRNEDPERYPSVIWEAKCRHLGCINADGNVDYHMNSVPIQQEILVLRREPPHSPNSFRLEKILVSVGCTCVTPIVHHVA

As usually defined, the Kd is the free concentration of one partner at which half of the binding sites on the other are occupied at equilibrium, for simple one-to-one binding. `c1ccc(CNc2cncc(-c3ccc4[nH]nc(NCCN5CCOCC5)c4c3)c2)cc1` [Cmpd 5, 5-(5-(benzylamino)pyridin-3-yl)-N-(2-morpholinoethyl)-1H-indazol-3-amine]: binding on IL17A [1] was put at a Kd of 12 µM.

In the case of `O=C(COc1ccccc1CNc1cc(C(=O)O)cc(-c2ccnc3ccccc23)c1)NCCNC(=O)COc1ccccc1CNc1cc(C(=O)O)cc(-c2ccnc3ccccc23)c1` [Cmpd 8, 5,5'-((((((ethane-1,2-diylbis(azanediyl))bis(2-oxoethane-2,1-diyl))bis(oxy))-bis(2,1-phenylene))bis(methylene))bis(azanediyl))bis(3-(quinolin-4-yl)benzoic acid)], binding on IL17A [2] was put at a Kd of 0.37 µM. Further, the “Disruption of IL17A-IL17RA interactions in SPR-based assay” value in assay [3] is “could block IL17A receptor interactions; also recorded: showed disruption of IL17A-IL17RA interactions”. Moreover, the IC50 in assay [4] was around 51 µM; in assay [5], 4.7 µM; in assay [6], around 54 µM; at IL17A-IL17RA-Fc complex (setting [9]), 3.6 µM and ~4 µM. The “Competition for IL17A with FP probe” value on IL17A [7] is recorded as “full competition”.

For the compound `Clc1ncc(NCc2ccccc2)cc1-c1cccc2ncccc12` [Cmpd 6, N-benzyl-6-chloro-5-(quinolin-5-yl)pyridin-3-amine], the Kd at IL17A [2] was ~70 µM and 72 µM.

On to `O=C1CC2(CCCC2)CC(=O)NC(Cc2ccc(NC(=O)C(Cc3ccccc3Cl)NC(=O)Cc3cccc(O)c3)cc2)C(=O)NCCOCCOCCN1` (stereo not drawn) [Cmpd 1, reference compound], for which, on IL17A [2], the Kd is around 0.004 µM. For the same compound, the “Binding efficiency index (BEI)” value on IL17A [2] (from SPR KD and molecular weight) is 11–13. For the same compound, in [5] (positive control in cellular assays), the “Concentration needed to block cellular signaling” value is ~ 3 µM. On IL17A-IL17RA-Fc complex (positive control in biochemical assays), the “Potency in biochemical assays” value was “low nM potency”.

Take “C-terminal deletion: IL17A construct (aa 34–148) lacking the final C-terminal residues (aa 149–155)”: the “Interaction with IL17RA by SPR” value in the assay with IL17RA is “did not productively interact with IL17RA”.

`C/C=C/c1cccc2c(N)n[nH]c12` [Cmpd 4, (E)-7-(prop-1-en-1-yl)-1H-indazol-3-amine] registered an equilibrium dissociation constant (Kd) on IL17A [2] above 250 µM.

For `O=C(COc1ccccc1CNc1cc(C(=O)O)cc(-c2ccnc3ccccc23)c1)NCCOCCOc1ccccc1CNc1cc(C(=O)O)cc(-c2ccnc3ccccc23)c1` [Cmpd 9, 3-((2-(2-(2-(2-(2-(((3-carboxy-5-(quinolin-4-yl)phenyl)amino)methyl)-phenoxy)acetamido)ethoxy)ethoxy)-benzyl)amino)-5-(quinolin-4-yl)benzoic acid], the Kd on IL17A [2] was 0.21 µM and 0.209 µM. The IC50 is above 70 µM in assay [4], 5.7 µM in assay [5], around 57 µM in assay [6] and 1.3 µM on IL17A-IL17RA-Fc complex (setting [9]). Further, the “Competition for IL17A with FP probe” value on IL17A [7] is “full competition”.

With `O=C(O)c1cc(NCc2ccccc2OCCOCCOCCOc2ccccc2CNc2cc(C(=O)O)cc(-c3ccnc4ccccc34)c2)cc(-c2ccnc3ccccc23)c1` [Cmpd 10], the Kd on IL17A [2] is 0.043 µM and < 0.1 µM; at IL17A [8], 0.044 µM. In addition, the IC50 was above 50 µM in assay [4]; 1.3 µM in [5]; 0.74 µM on IL17A-IL17RA-Fc complex (inhibition of IL17A/IL17RA-Fc interactions, read-out: IL17A/IL17RA-Fc IC50); 0.107 µM at IL17A [7] (unlabeled compound pre-bound to IL17A before addition of FP probe).
